# In EPA's ToxValDB 9.5 (doi:10.2903/j.efsa.2018.5211):
# Tests used:
# Aphidius rhopalosiphi = test: LR50; higher = less toxic; conditions: not reported; mortality
# Typhlodromus pyri = test: LR50; higher = less toxic; conditions: not reported; reproduction
# Daphnia magna = conditions: chronic/long-term; duration: 21 days; reproduction
# Canidae = conditions: subchronic; duration: 90 days; dermal; Dog Other; organ weight
# Folsomia candida = conditions: chronic/long-term; mortality
# Tagia sp. = conditions: chronic/long-term; duration: 56 days; growth
# Neomysis kadiakensis = conditions: acute; duration: 48 hours; mortality
# Apis mellifera = conditions: acute, duration: 48 hours, mortality
smiles,measurement,setting,value
COC[C@H](C)N(C(=O)CCl)c1c(C)csc1C [Dimethenamid-P],LR50,Aphidius rhopalosiphi,66.3 mL/ha
same,LR50,Typhlodromus pyri,> 1.4e+06 mL/ha
same,NOEC,Daphnia magna,0.68 mg/L
same,NOAEL,Canidae,4.3 mg/kg-day
same,NOEC,Folsomia candida,12.5 mg/kg
same,NOEC,Tagia sp.,25.4 mg/kg
same,LC50,"Oncorhynchus mykiss; acute, duration: 96 hours, mortality",2.6 mg/L
same,NOEC,"Oncorhynchus mykiss; chronic/long-term, growth",0.12 mg/L
same,LC50,Neomysis kadiakensis,3.2 mg/L
same,LD50,"Colinus virginianus; acute, oral, mortality",1070 mg/kg-day
same,LEL,"Colinus virginianus; chronic, mortality",107 mg/kg-day
same,NOAEL,Colinus virginianus; reproduction developmental,114 mg/kg-day
same,LD50,"Rattus norvegicus; acute, oral, mortality",466 mg/kg-day
same,NOAEL,"Rattus norvegicus; chronic, duration: 2 years, organ weight",5 mg/kg-day
same,NOAEL,"Rattus norvegicus; developmental, development",25 mg/kg-day
same,LOAEL,"Rattus norvegicus; reproduction developmental, food consumption",25 mg/kg-day
same,LD50,Apis mellifera; dermal,93.8 µg/piece
same,LD50,"Apis mellifera; oral, unspecified",119 µg/piece
